Consider three compounds from patent US9782483B2, “Sigma ligands for the prevention and/or treatment of emesis induced by chemotherapy or radiotherapy” (Laboratories Del Dr. Esteve, S.A., priority 2010, dated 2017).

For assay [1] the following is noted: during Patient-Controlled Analgesia Therapy; Tramèr et al. 1999; cited from earlier work.
Assay [2] has as its system ferret (Mustela putorius furo). Nature of the assay: Antiemetic properties against cisplatin-induced emesis in the conscious, unrestrained ferret (telemetry). The settings on record: cisplatin 5 mg/kg i.p., 80 mg/kg i.p., multiple dose regimen (9 treatments). The class given is in vivo. Here is the method: The antiemetic properties of compound 63 were assessed in combination with intraperitoneal administration of the chemotherapeutic agent cisplatin in the conscious, unrestrained ferret (Mustela putorius furo).
At least 12 days before their first treatment, ferrets were surgically implanted with telemetry devices. Individual body weights were recorded before treatment, at the time of telemetry device implantation, one day before the initiation of treatment and after completion of the treatment session, at the time of euthanasia, for each animal respectively.
The animals were treated according to the following schedule: […]
Body temperature, abdominal pressure and activity of the abdominal muscle (EMG) were recorded in treated animals, on day 0 and day 7, respectively, starting approximately 1 hour before the first administration of the vehicle and the test item and for at least 72 hours following the first administration of the vehicle and the test item. […]
2.7 Administration of Emetogenic Item • Route: Intraperitoneal. • Method of administration: Bolus injection using a sterile syringe and needle introduced intraperitoneally into the pelvic area. • Frequency: One administration for each animal, on day 0 or 7, one hour after the first treatment with the test item • Volume of administration: 5 mL/kg. • Individual dose volumes were calculated using the latest recorded body weight. […]

Consider `CN1[C@@H]2CC[C@H]1C[C@@H](OC(=O)c1c[nH]c3ccccc13)C2` [tropisetron], for which, in assay [1], the antinausea effect result is listed as “no evidence of any antinausea effect”.

Take `Cc1nccn1CC1CCc2c(c3ccccc3n2C)C1=O` (stereo not shown) [ondasetron]: the antinausea effect result in assay [1] is recorded as “no evidence of any antinausea effect”.

With `Cc1cc(OCCN2CCOCC2)nn1-c1ccc2ccccc2c1` [Compound 63, 4-{2-[5-Methyl-1-(naphthalen-2-yl)-1H-pyrazol-3-yloxy]ethyl}morpholine], in assay [2] (delayed phase 18 to 72 hours, vs vehicle), the “number of emetic events during the delayed phase” value is “markedly decreased”. Further, the “maximum total number of emetic events (EE)” value in assay [2] (delayed phase, between 62 and 63 hours) worked out at 39 EE.
